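Interpolation was linear, between the two tested concentrations surrounding the appropriate level; five concentrations were tested over 48 hours in 96-well plates. GI50 = concentration required for 50% inhibition of growth.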 Activity calls are given as the source filed them. No stated cut-off is given here; in the data, active = GI50 up to about 1.1 µM and inactive = higher.
What was measured:
Experiment in all cases: NCI tumour cell line growth inhibition, 48 h
A498 = system: A498
A549 = system: A549
CAKI-1 = system: CAKI-1
CCRF-CEM = system: CCRF-CEM
COLO 205 = system: COLO 205
DLD-1 = system: DLD-1
DMS-114 = system: DMS-114
DMS-273 = system: DMS-273
EKVX = system: EKVX
HCC 2998 = system: HCC 2998
HCT-116 = system: HCT-116
HCT-15 = system: HCT-15
HL-60 = system: HL-60
HOP-62 = system: HOP-62
HOP-92 = system: HOP-92
HT-29 = system: HT-29
IGROV-1 = system: IGROV-1
K562 = system: K562
KM-20L2 = system: KM-20L2
KM12 = system: KM12
LOX IMVI = system: LOX IMVI
M19-MEL = system: M19-MEL
MCF7 = system: MCF7
MOLT-4 = system: MOLT-4
NCI-H226 = system: NCI-H226
NCI-H23 = system: NCI-H23
NCI-H460 = system: NCI-H460
NCI-H522 = system: NCI-H522
NCI/ADR-RES = system: NCI/ADR-RES
OVCAR-3 = system: OVCAR-3
OVCAR-4 = system: OVCAR-4
OVCAR-5 = system: OVCAR-5
OVCAR-8 = system: OVCAR-8
RPMI-8226 = system: RPMI-8226
RXF 393 = system: RXF 393
SF-268 = system: SF-268
SF-295 = system: SF-295
SF-539 = system: SF-539
SK-MEL-28 = system: SK-MEL-28
SK-MEL-2 = system: SK-MEL-2
SK-MEL-5 = system: SK-MEL-5
SK-OV-3 = system: SK-OV-3
SN12C = system: SN12C
SNB-19 = system: SNB-19
SNB-75 = system: SNB-75
SNB-78 = system: SNB-78
SW-620 = system: SW-620
U-251 = system: U-251
UACC-257 = system: UACC-257
UACC-62 = system: UACC-62
UO-31 = system: UO-31
XF498 = system: XF498

Structure (SMILES): CNC(=O)C(C)C1CCC2(C)C=CC(=O)C(C)=C2C1O (configuration not stated)
- GI50 (A498): > 100 µM (inactive)
- GI50 (A549): > 48.8 µM (inactive)
- GI50 (CAKI-1): 28.5 µM (inactive)
- GI50 (CCRF-CEM): > 100 µM (inactive)
- GI50 (COLO 205): > 47.2 µM (inactive)
- GI50 (DLD-1): > 100 µM (inactive)
- GI50 (DMS-114): > 100 µM (inactive)
- GI50 (DMS-273): > 37.9 µM (inactive)
- GI50 (EKVX): > 100 µM (inactive)
- GI50 (HCC 2998): 67.3 µM (inactive)
- GI50 (HCT-116): > 100 µM (inactive)
- GI50 (HCT-15): > 100 µM
- GI50 (HL-60): > 100 µM (inactive)
- GI50 (HOP-62): > 100 µM (inactive)
- GI50 (HOP-92): > 100 µM (inactive)
- GI50 (HT-29): > 100 µM (inactive)
- GI50 (IGROV-1): > 55.2 µM (inactive)
- GI50 (K562): > 100 µM (inactive)
- GI50 (KM-20L2): > 100 µM (inactive)
- GI50 (KM12): > 100 µM (inactive)
- GI50 (LOX IMVI): > 100 µM (inactive)
- GI50 (M19-MEL): > 100 µM (inactive)
- GI50 (MCF7): > 100 µM (inactive)
- GI50 (MOLT-4): > 100 µM (inactive)
- GI50 (NCI-H226): > 100 µM (inactive)
- GI50 (NCI-H23): > 100 µM (inactive)
- GI50 (NCI-H460): > 100 µM (inactive)
- GI50 (NCI-H522): > 100 µM (inactive)
- GI50 (NCI/ADR-RES): > 47 µM (inactive)
- GI50 (OVCAR-3): > 100 µM (inactive)
- GI50 (OVCAR-4): > 100 µM (inactive)
- GI50 (OVCAR-5): > 100 µM (inactive)
- GI50 (OVCAR-8): > 49.4 µM (inactive)
- GI50 (RPMI-8226): > 100 µM (inactive)
- GI50 (RXF 393): > 100 µM (inactive)
- GI50 (SF-268): > 100 µM (inactive)
- GI50 (SF-295): > 44.8 µM (inactive)
- GI50 (SF-539): > 100 µM (inactive)
- GI50 (SK-MEL-28): > 100 µM (inactive)
- GI50 (SK-MEL-2): > 100 µM (inactive)
- GI50 (SK-MEL-5): > 39.6 µM (inactive)
- GI50 (SK-OV-3): > 100 µM (inactive)
- GI50 (SN12C): > 100 µM (inactive)
- GI50 (SNB-19): > 100 µM (inactive)
- GI50 (SNB-75): > 100 µM (inactive)
- GI50 (SNB-78): > 100 µM (inactive)
- GI50 (SW-620): > 57.4 µM (inactive)
- GI50 (U-251): > 44.8 µM (inactive)
- GI50 (UACC-257): > 100 µM (inactive)
- GI50 (UACC-62): > 100 µM (inactive)
- GI50 (UO-31): > 43.3 µM (inactive)
- GI50 (XF498): > 100 µM (inactive)
